{"source": "patent US12570662B2", "about": "“Substituted pyrrolo[1,2-b]pyridazines as bifunctional degraders of interleukin-1 receptor-associated kinases” (Nurix Therapeutics, Inc., priority 2021, dated 2026)", "biological_target": "T1, IRAK4 (Homo sapiens, UniProt Q9NWZ3)", "T1 construct": "C-terminal HiBiT-tagged Jurkat cells (polyclonal cell line or clone 8D5); endogenous in cells; host or cells: Jurkat cells (polyclonal cell line or clone 8D5), HiBiT-tagged", "T1 sequence (Q9NWZ3 1-460)": "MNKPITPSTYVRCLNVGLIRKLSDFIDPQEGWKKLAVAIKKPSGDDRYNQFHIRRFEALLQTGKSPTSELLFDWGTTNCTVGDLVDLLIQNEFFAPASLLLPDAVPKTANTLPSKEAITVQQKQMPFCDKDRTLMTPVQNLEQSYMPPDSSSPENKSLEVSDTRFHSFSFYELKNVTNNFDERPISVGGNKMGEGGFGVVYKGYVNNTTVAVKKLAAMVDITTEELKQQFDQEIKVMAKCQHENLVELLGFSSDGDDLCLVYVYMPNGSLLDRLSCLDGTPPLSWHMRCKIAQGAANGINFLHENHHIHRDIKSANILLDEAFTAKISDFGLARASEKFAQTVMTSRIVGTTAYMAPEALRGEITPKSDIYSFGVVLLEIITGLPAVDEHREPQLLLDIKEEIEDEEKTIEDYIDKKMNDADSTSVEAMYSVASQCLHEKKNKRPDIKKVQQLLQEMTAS", "assay": "IRAK4 Degradation HiBit Assay", "format": "cell-based", "settings": "C-terminal HiBiT-tagged Jurkat cells, 4 hrs incubation; for DC50: % IRAK4 remaining, four-parameter fit (IC50 used as DC50); for Dmax: from fit of % IRAK4 remaining, read-out: Dmax", "method_in_brief": "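Degradation was quantified by luminescence after adding lytic detection reagent containing LgBiT to HiBiT-tagged Jurkat cells (polyclonal or clone 8D5). Cells were treated 4 h at 32 °C across 11 concentrations from 10 μM to 0.1 nM final. Four-parameter curve fitting of % IRAK4 remaining versus DMSO gave DC50 and Dmax.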"}
{"smiles": "N#Cc1cnn2c(-c3cc(NC4CCOCC4)c(-c4nnc(C56CCC(C(=O)N7CCc8cc(C9CCC(=O)NC9=O)ccc8C7)(CC5)CC6)s4)cn3)ccc2c1", "note": "(racemic) [Example 57, rac-7-{5-[5-(4-{6-[(3R)-2,6-dioxopiperidin-3-yl]-1,2,3,4-tetrahydroisoquinoline-2-carbonyl}bicyclo[2.2.2]octan-1-yl)-1,3,4-thiadiazol-2-yl]-4-[(oxan-4-yl)amino]pyridin-2-yl}pyrrolo[1,2-b]pyridazine-3-carbonitrile]", "values": [{"measurement": "DC50", "result": 0.071, "unit": "µM"}, {"measurement": "Dmax", "result": 104, "unit": "%"}]}
{"smiles": "CC1(Nc2cc(-c3ccc4cc(C#N)cnn34)ncc2-c2nnc(N3CCN(CC4CCN(c5ccc(C6CCC(=O)NC6=O)cn5)CC4)CC3)s2)COC1", "note": "(racemic) [Example 58, rac-7-[5-(5-{4-[(1-{5-[(3R)-2,6-dioxopiperidin-3-yl]pyridin-2-yl}piperidin-4-yl)methyl]piperazin-1-yl}-1,3,4-thiadiazol-2-yl)-4-[(3-methyloxetan-3-yl)amino]pyridin-2-yl]pyrrolo[1,2-b]pyridazine-3-carbonitrile]", "values": [{"measurement": "DC50", "result": 0.021, "unit": "µM"}, {"measurement": "Dmax", "result": 113, "unit": "%"}]}
{"smiles": "N#CCNc1cc(-c2ccc3cc(C#N)cnn23)ncc1-c1nnc(N2CCN(CC3CCN(c4ccc(C5CCC(=O)NC5=O)cn4)CC3)CC2)s1", "note": "(racemic) [Example 59, rac-7-{4-[(cyanomethyl)amino]-5-(5-{4-[(1-{5-[(3R)-2,6-dioxopiperidin-3-yl]pyridin-2-yl}piperidin-4-yl)methyl]piperazin-1-yl}-1,3,4-thiadiazol-2-yl)pyridin-2-yl}pyrrolo[1,2-b]pyridazine-3-carbonitrile]", "values": [{"measurement": "DC50", "result": 0.007, "unit": "µM"}, {"measurement": "Dmax", "result": 120, "unit": "%"}]}
{"smiles": "N#Cc1cnn2c(-c3cc(NC4COC4)c(-c4nnc(N5CCN(CC6CCN(c7ccc(C8CCC(=O)NC8=O)cn7)CC6)CC5)s4)cn3)ccc2c1", "note": "(racemic) [Example 61, rac-7-[5-(5-{4-[(1-{5-[(3R)-2,6-dioxopiperidin-3-yl]pyridin-2-yl}piperidin-4-yl)methyl]piperazin-1-yl}-1,3,4-thiadiazol-2-yl)-4-[(oxetan-3-yl)amino]pyridin-2-yl]pyrrolo[1,2-b]pyridazine-3-carbonitrile]", "values": [{"measurement": "DC50", "result": 0.018, "unit": "µM"}, {"measurement": "Dmax", "result": 111, "unit": "%"}]}
{"smiles": "CC(C)Nc1cc(-c2ccc3cc(C#N)cnn23)ncc1-c1nnc(N2CCN(CC3CCN(c4ccc(C5CCC(=O)NC5=O)cc4)CC3)CC2)s1", "note": "(racemic) [Example 64, rac-7-[5-(5-{4-[(1-{4-[(3R)-2,6-dioxopiperidin-3-yl]phenyl}piperidin-4-yl)methyl]piperazin-1-yl}-1,3,4-thiadiazol-2-yl)-4-[(propan-2-yl)amino]pyridin-2-yl]pyrrolo[1,2-b]pyridazine-3-carbonitrile]", "values": [{"measurement": "DC50", "result": 0.123, "unit": "µM"}, {"measurement": "Dmax", "result": 76, "unit": "%"}]}
{"smiles": "N#Cc1cnn2c(-c3cc(NC4CCOCC4)c(-c4nnc(N5CCN(C(=O)CN6CCc7cc(C8CCC(=O)NC8=O)ccc7C6)CC5)s4)cn3)ccc2c1", "note": "(racemic) [Example 66, rac-7-(5-{5-[4-(2-{6-[(3R)-2,6-dioxopiperidin-3-yl]-1,2,3,4-tetrahydroisoquinolin-2-yl}acetyl)piperazin-1-yl]-1,3,4-thiadiazol-2-yl}-4-[(oxan-4-yl)amino]pyridin-2-yl)pyrrolo[1,2-b]pyridazine-3-carbonitrile]", "values": [{"measurement": "DC50", "result": 0.008, "unit": "µM"}, {"measurement": "Dmax", "result": 110, "unit": "%"}]}
{"smiles": "N#Cc1cnn2c(-c3cc(NC4CC4)c(-c4nnc(N5CCN(CC6CCN(c7ccc(C8CCC(=O)NC8=O)cn7)CC6)CC5)s4)cn3)ccc2c1", "note": "(racemic) [Example 67, rac-7-[4-(cyclopropylamino)-5-(5-{4-[(1-{5-[(3R)-2,6-dioxopiperidin-3-yl]pyridin-2-yl}piperidin-4-yl)methyl]piperazin-1-yl}-1,3,4-thiadiazol-2-yl)pyridin-2-yl]pyrrolo[1,2-b]pyridazine-3-carbonitrile]", "values": [{"measurement": "DC50", "result": 0.038, "unit": "µM"}, {"measurement": "Dmax", "result": 85, "unit": "%"}]}
{"smiles": "CCNc1cc(-c2ccc3cc(C#N)cnn23)ncc1-c1nnc(N2CCN(CC3CCN(c4ccc(C5CCC(=O)NC5=O)cn4)CC3)CC2)s1", "note": "(racemic) [Example 68, rac-7-[5-(5-{4-[(1-{5-[(3R)-2,6-dioxopiperidin-3-yl]pyridin-2-yl}piperidin-4-yl)methyl]piperazin-1-yl}-1,3,4-thiadiazol-2-yl)-4-(ethylamino)pyridin-2-yl]pyrrolo[1,2-b]pyridazine-3-carbonitrile]", "values": [{"measurement": "DC50", "result": 0.187, "unit": "µM"}, {"measurement": "Dmax", "result": 103, "unit": "%"}]}
{"smiles": "CCNc1cc(-c2ccc3cc(C#N)cnn23)ncc1-c1nnc(N2CCN(CC3CCN(c4ccc(C5CCC(=O)NC5=O)cn4)CC3)CC2)o1", "note": "(racemic) [Example 69, rac-7-[5-(5-{4-[(1-{5-[(3R)-2,6-dioxopiperidin-3-yl]pyridin-2-yl}piperidin-4-yl)methyl]piperazin-1-yl}-1,3,4-oxadiazol-2-yl)-4-(ethylamino)pyridin-2-yl]pyrrolo[1,2-b]pyridazine-3-carbonitrile]", "values": [{"measurement": "DC50", "result": 1, "unit": "µM"}, {"measurement": "Dmax", "result": 84, "unit": "%"}]}
{"smiles": "CCNc1cc(-c2ccc3cc(C#N)cnn23)ncc1-c1nnc(N2CCN(CC3CCN(c4ccc(C5CCC(=O)NC5=O)cc4)CC3)CC2)s1", "note": "(racemic) [Example 70, rac-7-[5-(5-{4-[(1-{4-[(3R)-2,6-dioxopiperidin-3-yl]phenyl}piperidin-4-yl)methyl]piperazin-1-yl}-1,3,4-thiadiazol-2-yl)-4-(ethylamino)pyridin-2-yl]pyrrolo[1,2-b]pyridazine-3-carbonitrile]", "values": [{"measurement": "DC50", "result": 0.042, "unit": "µM"}, {"measurement": "Dmax", "result": 112, "unit": "%"}]}
{"smiles": "CC(C)Nc1cc(-c2ccc3cc(C#N)cnn23)ncc1-c1nnc(N2CC3CCC(C2)N3CC2CCN(c3ccc([C@H]4CCC(=O)NC4=O)cc3)CC2)s1", "note": "(racemic) [Example 72, rac-7-[5-(5-{8-[(1-{4-[(3R)-2,6-dioxopiperidin-3-yl]phenyl}piperidin-4-yl)methyl]-3,8-diazabicyclo[3.2.1]octan-3-yl}-1,3,4-thiadiazol-2-yl)-4-[(propan-2-yl)amino]pyridin-2-yl]pyrrolo[1,2-b]pyridazine-3-carbonitrile]", "values": [{"measurement": "DC50", "result": 0.045, "unit": "µM"}, {"measurement": "Dmax", "result": 60, "unit": "%"}]}
{"smiles": "N#Cc1cnn2c(-c3cc(NC4CCOCC4)c(-c4nnc(N5CCN(C6CC7(CCN(c8ccc(C9CCC(=O)NC9=O)cn8)CC7)C6)CC5)s4)cn3)ccc2c1", "note": "(racemic) [Example 74, rac-7-(5-{5-[4-(7-{5-[(3R)-2,6-dioxopiperidin-3-yl]pyridin-2-yl}-7-azaspiro[3.5]nonan-2-yl)piperazin-1-yl]-1,3,4-thiadiazol-2-yl}-4-[(oxan-4-yl)amino]pyridin-2-yl)pyrrolo[1,2-b]pyridazine-3-carbonitrile]", "values": [{"measurement": "DC50", "result": 0.023, "unit": "µM"}, {"measurement": "Dmax", "result": 71, "unit": "%"}]}
{"smiles": "C[C@H](C#N)Nc1cc(-c2ccc3cc(C#N)cnn23)ncc1-c1nnc(N2CCN(CC3CCN(c4ccc(C5CCC(=O)NC5=O)cn4)CC3)CC2)s1", "note": "(mixture of isomers) [Example 75, 7-(4-{[(1R)-1-cyanoethyl]amino}-5-(5-{4-[(1-{5-[(3RS)-2,6-dioxopiperidin-3-yl]pyridin-2-yl}piperidin-4-yl)methyl]piperazin-1-yl}-1,3,4-thiadiazol-2-yl)pyridin-2-yl)pyrrolo[1,2-b]pyridazine-3-carbonitrile]", "values": [{"measurement": "DC50", "result": 0.009, "unit": "µM"}, {"measurement": "Dmax", "result": 111, "unit": "%"}]}
{"smiles": "CC1(Nc2cc(-c3ccc4cc(C#N)cnn34)ncc2-c2nnc(N3CCN(CC4CCN(c5ccc(C6CCC(=O)NC6=O)cc5)CC4)CC3)s2)COC1", "note": "(racemic) [Example 76, rac-7-[5-(5-{4-[(1-{4-[(3R)-2,6-dioxopiperidin-3-yl]phenyl}piperidin-4-yl)methyl]piperazin-1-yl}-1,3,4-thiadiazol-2-yl)-4-[(3-methyloxetan-3-yl)amino]pyridin-2-yl]pyrrolo[1,2-b]pyridazine-3-carbonitrile]", "values": [{"measurement": "DC50", "result": 0.023, "unit": "µM"}, {"measurement": "Dmax", "result": 111, "unit": "%"}]}
